From patent US11702419B2, “Heterocyclic compound and use thereof” (Takeda Pharmaceutical Company Limited, priority 2018, dated 2023)

Molecular target: T1, NMDA receptor composed of four subunits consisting of two sets of heterodimers of NR1 and NR2B (human GRIN1 and GRIN2B-expressing HEK293 cells) (Homo sapiens, UniProt Q13224)
T1 construct: host or cells: HEK293 (tetracycline-inducible expression)
Test: NR2B Ca2+ influx assay
Assay type: cell-based
Conditions: 10 μM compound, glutamic acid/glycine-induced Ca2+ influx, FLIPR, read-out: inhibitory rate (10 μM compound concentration)
Experimental: In order to confirm an “antagonistic action on an NMDA receptor containing the NR2B subunit” which the compound of the present invention has, inhibitory effect on the NMDA receptor activation was evaluated using “NMDA receptor composed of four subunits consisting of two sets of heterodimers of NR1 and NR2B”-expressing human fetal renal cells, specifically human glutamate ionotropic receptor NMDA type subunit 1 (GRIN1) and human glutamate ionotropic receptor NMDA type subunit 2B (GRIN2B)-expressing HEK293 cells.
As an index of the NMDA receptor activation, intracellular calcium ion (Ca^2+) influx caused by bonding of glycine and glutamate to NR1 and NR2B respectively was used. HEK293 cells were purchased from ChanTest. The cells were cultured in a DMEM/F-12 (COSMO BIO, 10-092-CM) medium containing 10% FBS (fetal bovine serum, AusGene), 100 units/mL penicillin, 100 μg/mL streptomycin, 500 μg/mL neomycin, 100 μg/mL Zeocin and 5 μg/mL Blasticidin at 37° C., 5% CO2. The cells were detached from flask with trypsin the day before the assay, suspended in a seeding medium (DMEM (Invitrogen, 31053) containing 10% FBS, 100 units/mL penicillin and 100 μg/mL streptomycin) at 8×10^5 cells/mL, seeded by 25 μL per well in a 384-well plate (Falcon, 356663) at 20000 cells/well, and cultured overnight in an incubator. On the day of the assay, tetracycline (Wako Pure Chemical Industries, 209-16561) was diluted with the seeding medium at 2 μg/mL, and the dilution was added at 25 μL/well to the plate seeded with the cells, and the cells were cultured for 2 hr in an incubator. Thereafter, the medium was removed, and the cells were washed with 50 μL/well of assay buffer (137 mM NaCl, 4 mM KCl, 1.8 mM CaCl2, 10 mM HEPES (pH 7.2), 10 mM Glucose, and 0.1% BSA). Then, a loading buffer (assay buffer containing 2.5 μM Fluo-4AM, 2 mM Amaranth and 1 mM Tartrazine) was added thereto at 25 μL/well, and loading was performed in the incubator for 30 min, and then at room temperature for 15 min. The test compound was diluted with the above-mentioned assay buffer so as to adjust the concentration to 30 μM, the obtained solution (25 μL) was added thereto (the final concentration 10 μM), and the cells were stood for 15 min at room temperature. Using FLIPR (Molecular Devices), 25 μL of an assay buffer containing 30 μM glutamic acid and 30 μM glycine was added thereto, and the fluorescence signal was measured every 3 seconds for 5 min. The relative activity value (inhibitory rate) was calculated when the cumulative total value of the fluorescence value of a well added with a buffer free of glutamic acid and glycine, relative to the cumulative total value of the fluorescence value of each well are regarded as 100% inhibition. The obtained value was evaluated as an inhibitory activity.

T1 sequence (Q13224 27-1484, other chains not shown): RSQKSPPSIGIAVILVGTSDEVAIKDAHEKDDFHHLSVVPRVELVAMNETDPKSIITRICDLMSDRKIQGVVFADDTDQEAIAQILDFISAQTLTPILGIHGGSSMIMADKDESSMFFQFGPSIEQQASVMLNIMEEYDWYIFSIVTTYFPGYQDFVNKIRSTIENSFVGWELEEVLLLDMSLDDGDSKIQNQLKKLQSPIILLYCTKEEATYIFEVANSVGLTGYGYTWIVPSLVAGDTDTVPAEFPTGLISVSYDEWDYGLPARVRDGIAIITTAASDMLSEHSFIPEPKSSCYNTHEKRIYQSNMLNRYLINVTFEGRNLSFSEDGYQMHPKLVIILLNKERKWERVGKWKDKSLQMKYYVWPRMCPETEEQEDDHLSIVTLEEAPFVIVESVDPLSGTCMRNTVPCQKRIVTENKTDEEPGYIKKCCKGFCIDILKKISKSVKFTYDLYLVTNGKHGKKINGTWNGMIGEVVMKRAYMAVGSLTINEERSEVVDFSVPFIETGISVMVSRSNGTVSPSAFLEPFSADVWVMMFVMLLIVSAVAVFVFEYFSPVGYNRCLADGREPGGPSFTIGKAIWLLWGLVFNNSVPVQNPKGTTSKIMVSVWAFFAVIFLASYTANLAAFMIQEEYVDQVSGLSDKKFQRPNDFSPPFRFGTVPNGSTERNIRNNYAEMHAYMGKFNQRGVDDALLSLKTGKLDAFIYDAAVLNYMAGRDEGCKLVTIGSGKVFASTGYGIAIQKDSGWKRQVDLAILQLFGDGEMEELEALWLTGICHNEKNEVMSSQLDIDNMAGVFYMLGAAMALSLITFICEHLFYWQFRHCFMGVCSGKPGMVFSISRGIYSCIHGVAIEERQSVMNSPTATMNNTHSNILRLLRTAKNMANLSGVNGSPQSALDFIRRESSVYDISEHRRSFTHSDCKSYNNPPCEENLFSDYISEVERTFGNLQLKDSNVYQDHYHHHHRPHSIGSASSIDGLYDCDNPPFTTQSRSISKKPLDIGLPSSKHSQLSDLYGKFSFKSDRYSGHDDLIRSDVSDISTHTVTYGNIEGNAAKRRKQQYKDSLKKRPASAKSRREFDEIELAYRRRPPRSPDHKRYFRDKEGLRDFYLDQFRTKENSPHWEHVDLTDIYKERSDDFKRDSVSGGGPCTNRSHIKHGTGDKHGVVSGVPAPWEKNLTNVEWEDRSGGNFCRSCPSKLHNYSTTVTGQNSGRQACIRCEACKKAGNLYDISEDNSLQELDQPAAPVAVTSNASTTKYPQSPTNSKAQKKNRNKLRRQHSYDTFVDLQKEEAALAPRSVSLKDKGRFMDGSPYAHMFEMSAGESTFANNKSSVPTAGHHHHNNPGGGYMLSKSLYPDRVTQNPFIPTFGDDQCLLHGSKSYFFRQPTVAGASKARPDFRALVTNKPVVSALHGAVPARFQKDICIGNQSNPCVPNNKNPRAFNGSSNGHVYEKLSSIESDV

| SMILES | inhibition at 10 µM |
| --- | --- |
| Cn1ccn2ncc(CNC(=O)c3ccc(OC4CC4)cc3)c12 [Example 60, 4-(cyclopropyloxy)-N-((1-methyl-1H-imidazo[1,2-b]pyrazol-7-yl)methyl)benzamide] | 88% |
| CCn1ccn2ncc(CNC(=O)c3cnc(OC(F)F)c(F)c3)c12 [Example 83, 6-(difluoromethoxy)-N-[(1-ethyl-1H-imidazo[1,2-b]pyrazol-7-yl)methyl]-5-fluoropyridine-3-carboxamide] | 94% |
| Cc1nn2ncccc2c1CNC(=O)c1cnc(OC(F)F)c(F)c1 [Example 17, 6-(difluoromethoxy)-5-fluoro-N-((2-methylpyrazolo[1,5-b]pyridazin-3-yl)methyl)nicotinamide] | 94% |
| Cc1nn2ncc(CNC(=O)c3cnc(OC(F)F)c(F)c3)c2n1C(F)F [Example 74, 6-(difluoromethoxy)-N-{[1-(difluoromethyl)-2-methyl-1H-pyrazolo[1,5-b][1,2,4]triazol-7-yl]methyl}-5-fluoropyridine-3-carboxamide] | 90% |
| Cn1ccn2ncc(CNC(=O)c3cnc(OC(F)F)c(Cl)c3)c12 [Example 59, 5-chloro-6-(difluoromethoxy)-N-((1-methyl-1H-imidazo[1,2-b]pyrazol-7-yl)methyl)nicotinamide] | 97% |
| COc1c(F)cc(C(=O)NCc2cnn3ncccc23)cc1F [Example 12, 3,5-difluoro-4-methoxy-N-(pyrazolo[1,5-b]pyridazin-3-ylmethyl)benzamide] | 97% |
| Cc1cnn2ncc(CNC(=O)c3ccc(OC(F)F)c(F)c3)c2c1 [Example 38, 4-(difluoromethoxy)-3-fluoro-N-((5-methylpyrazolo[1,5-b]pyridazin-3-yl)methyl)benzamide] | 98% |
| Cc1cnn2ncc(CNC(=O)c3ccc(OC(F)(F)F)c(F)c3)c2c1 [Example 21, 3-fluoro-N-((5-methylpyrazolo[1,5-b]pyridazin-3-yl)methyl)-4-(trifluoromethoxy)benzamide] | 97% |
| O=C(NCc1cnn2ncccc12)c1cnc(OC(F)F)c(Cl)c1 [Example 8, 5-chloro-6-(difluoromethoxy)-N-(pyrazolo[1,5-b]pyridazin-3-ylmethyl)nicotinamide] | 97% |
| CCc1nn2ncccc2c1CNC(=O)c1cnc(OC(F)F)c(F)c1 [Example 26, 6-(difluoromethoxy)-N-((2-ethylpyrazolo[1,5-b]pyridazin-3-yl)methyl)-5-fluoronicotinamide] | 90% |
| O=C(NCc1nnn2ccccc12)c1ccc(C(F)(F)F)c(F)c1 [Example 68, 3-fluoro-N-([1,2,3]triazolo[1,5-a]pyridin-3-ylmethyl)-4-(trifluoromethyl)benzamide] | 83% |
| Cn1ccn2ncc(CNC(=O)c3ccc(C(F)(F)F)c(F)c3)c12 [Example 67, 3-fluoro-N-((1-methyl-1H-imidazo[1,2-b]pyrazol-7-yl)methyl)-4-(trifluoromethyl)benzamide] | 98% |
| O=C(NCc1cnn2ccn(C(F)F)c12)c1cnc(OC(F)F)c(F)c1 [Example 76, 6-(difluoromethoxy)-N-{[1-(difluoromethyl)-1H-imidazo[1,2-b]pyrazol-7-yl]methyl}-5-fluoropyridine-3-carboxamide] | 87% |
| O=C(NCc1nnn2ncccc12)c1ccc(OC(F)F)c(Cl)c1 [Example 30, 3-chloro-4-(difluoromethoxy)-N-([1,2,3]triazolo[1,5-b]pyridazin-3-ylmethyl)benzamide] | 97% |
| O=C(NCc1cnn2ccncc12)c1cnc(OC(F)F)c(F)c1 [Example 45, 6-(difluoromethoxy)-5-fluoro-N-(pyrazolo[1,5-a]pyrazin-3-ylmethyl)nicotinamide] | 92% |
| Cc1cccn2nnc(CNC(=O)c3ccc(OC(F)F)c(Cl)c3)c12 [Example 3, 3-chloro-4-(difluoromethoxy)-N-((4-methyl[1,2,3]triazolo[1,5-a]pyridin-3-yl)methyl)benzamide] | 76% |
| O=C(NCc1nnn2ccccc12)c1ccc(OC(F)F)c(F)c1 [Example 35, 4-(difluoromethoxy)-3-fluoro-N-([1,2,3]triazolo[1,5-a]pyridin-3-ylmethyl)benzamide] | 94% |

| SMILES | inhibition at 10 µM |
| --- | --- |
| Cn1ccn2ncc(CNC(=O)c3ccc(Cl)c(F)c3)c12 [Example 63, 4-chloro-3-fluoro-N-((1-methyl-1H-imidazo[1,2-b]pyrazol-7-yl)methyl)benzamide] | 96% |
| Cn1ccn2ncc(CNC(=O)c3ccc(C(F)(F)F)s3)c12 [Example 65, N-((1-methyl-1H-imidazo[1,2-b]pyrazol-7-yl)methyl)-5 (trifluoromethyl)thiophene-2-carboxamide] | 96% |
| O=C(NCc1nnn2ncccc12)c1ccc(OC(F)F)c(F)c1 [Example 33, 4-(difluoromethoxy)-3-fluoro-N-([1,2,3]triazolo[1,5-b]pyridazin-3-ylmethyl)benzamide] | 97% |
| COc1ncc(C(=O)NCc2cnn3ncccc23)cc1Cl [Example 9, 5-chloro-6-methoxy-N-(pyrazolo[1,5-b]pyridazin-3-ylmethyl)nicotinamide] | 87% |
| CCn1ccn2ncc(CNC(=O)c3cnc(OC(F)F)c(Cl)c3)c12 [Example 84, 5-chloro-6-(difluoromethoxy)-N-[(1-ethyl-1H-imidazo[1,2-b]pyrazol-7-yl)methyl]pyridine-3-carboxamide] | 95% |
| O=C(NCc1c(C2CC2)nn2ncccc12)c1ccc(OC(F)F)c(F)c1 [Example 29, N-((2-cyclopropylpyrazolo[1,5-b]pyridazin-3-yl)methyl)-4-(difluoromethoxy)-3-fluorobenzamide] | 89% |
| Cc1ccnn2nnc(CNC(=O)c3cnc(OC(F)F)c(F)c3)c12 [Example 53, 6-(difluoromethoxy)-5-fluoro-N-((4-methyl[1,2,3]triazolo[1,5-b]pyridazin-3-yl)methyl)nicotinamide] | 84% |
| Cc1cccn2nnc(CNC(=O)c3ccc(OC(F)(F)F)cc3)c12 [Example 2, N-((4-methyl[1,2,3]triazolo[1,5-a]pyridin-3-yl)methyl)-4-(trifluoromethoxy)benzamide] | 54% |
| O=C(NCc1nnn2cc(F)ccc12)c1ccc(OC(F)(F)F)cc1 [Example 1, N-((6-fluoro[1,2,3]triazolo[1,5-a]pyridin-3-yl)methyl)-4-(trifluoromethoxy)benzamide] | 94% |
| O=C(NCc1c(C2CC2)nn2ncccc12)c1cnc(OC(F)F)c(F)c1 [Example 28, N-((2-cyclopropylpyrazolo[1,5-b]pyridazin-3-yl)methyl)-6-(difluoromethoxy)-5-fluoronicotinamide] | 85% |
| Cc1ccc2c(CNC(=O)c3ccc(OC(F)(F)F)c(F)c3)cnn2n1 [Example 11, 3-fluoro-N-((6-methylpyrazolo[1,5-b]pyridazin-3-yl)methyl)-4-(trifluoromethoxy)benzamide] | 98% |
| COc1c(F)cc(C(=O)NCc2nnn3ccccc23)cc1F [Example 41, 3,5-difluoro-4-methoxy-N-([1,2,3]triazolo[1,5-a]pyridin-3-ylmethyl)benzamide] | 86% |
| Cn1ccn2ncc(CNC(=O)c3ccc(OC(F)(F)F)nc3)c12 [Example 64, N-((1-methyl-1H-imidazo[1,2-b]pyrazol-7-yl)methyl)-6-(trifluoromethoxy)nicotinamide] | 96% |
| O=C(NCc1c(C(F)F)nn2ncccc12)c1cnc(OC(F)F)c(F)c1 [Example 43, 6-(difluoromethoxy)-N-((2-(difluoromethyl)pyrazolo[1,5-b]pyridazin-3-yl)methyl)-5-fluoronicotinamide] | 95% |
| Cc1ccnn2ncc(CNC(=O)c3cnc(OC(F)F)c(F)c3)c12 [Example 37, 6-(difluoromethoxy)-5-fluoro-N-((4-methylpyrazolo[1,5-b]pyridazin-3-yl)methyl)nicotinamide] | 96% |
| O=C(NCc1nnn2ncccc12)c1ccc(OC(F)(F)F)c(Cl)c1 [Example 40, 3-chloro-N-([1,2,3]triazolo[1,5-b]pyridazin-3-ylmethyl)-4-(trifluoromethoxy)benzamide] | 98% |
